assay: method code SF-AS, from DOI: 10.1002/jps.2600820804

| SMILES | logP |
| --- | --- |
| Cc1cccc(C)c1C(=O)O | 2.21 |
| Oc1c(Br)cccc1Br | 3.36 |
| CCOc1cccc(OC(C)=O)c1 | 2.08 |
| COc1cccc(OC(C)=O)c1 | 1.61 |
| COC(=O)c1cccc(C)c1 | 2.77 |
| COC(=O)c1c(Cl)cccc1[N+](=O)[O-] | 2.21 |
| COC(=O)c1ccccc1I | 2.74 |
| CC(=O)Oc1c(C)cccc1C | 2.32 |
| Oc1c(F)cccc1F | 1.96 |
| CCc1cccc(OC(C)=O)c1 | 2.45 |
| COC(=O)c1ccc(C)cc1 | 2.7 |
| COC(=O)c1c(F)cccc1F | 1.96 |
| N#Cc1ccccc1C(N)=O | 0 |
| COC(=O)c1c(C)cccc1C | 2.55 |
| COC(=O)c1cccc(Cl)c1 | 2.85 |
| Cc1cccc(Cl)c1O | 2.8 |
| COC(=O)c1ccc([N+](=O)[O-])cc1 | 1.94 |
| COC(=O)c1ccc(Br)cc1 | 2.95 |

| SMILES | logP |
| --- | --- |
| NC(=O)c1ccccc1[N+](=O)[O-] | -0.12 |
| O=C(O)c1c(Cl)cccc1[N+](=O)[O-] | 1.56 |
| CSc1ccccc1C(N)=O | 0.71 |
| O=C(O)c1c(Br)cccc1Br | 3.58 |
| COC(=O)c1ccc(F)cc1 | 2.28 |
| COC(=O)c1ccccc1F | 1.82 |
| COC(=O)c1ccccc1[N+](=O)[O-] | 1.66 |
| COC(=O)c1c(F)cccc1Cl | 2.42 |
| COC(=O)c1ccccc1OC | 2.04 |
| CC(=O)Oc1c(Cl)cccc1Cl | 2.94 |
| COC(=O)c1cccc([N+](=O)[O-])c1 | 1.89 |
| O=C(O)c1c(F)cccc1F | 1.59 |
| O=C(O)c1c(F)cccc1Cl | 2.11 |
| Cc1cccc(Cl)c1C(=O)O | 2.31 |
| CCc1cccc(CC)c1OC(C)=O | 3.4 |
| CCc1cccc(CC)c1O | 3.03 |
| COC(=O)c1c(Cl)cccc1Cl | 2.79 |

From the SangsterLogP compilation
